Patent US12707803B2, “Light-emitting device” (Semiconductor Energy Laboratory Co., Ltd., priority 2022, dated 2026)
In brackets after ≈: the same amount, converted by molar mass.

Test: water solubility of materials added to electron-injection buffer region
Format: physicochemical
Source text: The table below lists the number of hydrophilic hpp groups, the number of hydrophobic tert-butyl groups, and water solubility of the materials added to the electron-injection buffer regions 914 in the light-emitting devices 7A to 7K.

`CC(C)(C)c1ccc2c(c1)C1(c3cc(N4CCCN5CCCN=C54)ccc3-c3ccc(N4CCCN5CCCN=C54)cc31)c1cc(C(C)(C)C)ccc1-2` [2′,7′tBu-2,7hpp2SF, 1,1′-(2′,7′-di-tert-butyl-9,9′-spirobi[9H-fluorene]-2,7-diyl)bis(1,3,4,6,7,8-hexahydro-2H-pyrimido[1,2-a]pyrimidine)] gave a solubility of 58 to 62 µg/mL (≈ 82.5 to 88.2 µM).
